The target in one series is P-gp (Homo sapiens, UniProt P08183). Nature of the series: In vitro drug transporter inhibition, P-gp. Format: in vitro ADME. An excerpt:
(§1) Based on the results of Example 1, it was contemplated that Compound I increased the exposure of sofosbuvir by inhibiting the activities of one or more drug transporters. This example carried out in vitro experiments to test whether Compound I inhibited any of the potentially relevant drug transporters, […], BCRP and P-gp.

A further series has as its target T1, BCRP (Homo sapiens, UniProt Q9UNQ0).
T1 sequence (Q9UNQ0 1-655): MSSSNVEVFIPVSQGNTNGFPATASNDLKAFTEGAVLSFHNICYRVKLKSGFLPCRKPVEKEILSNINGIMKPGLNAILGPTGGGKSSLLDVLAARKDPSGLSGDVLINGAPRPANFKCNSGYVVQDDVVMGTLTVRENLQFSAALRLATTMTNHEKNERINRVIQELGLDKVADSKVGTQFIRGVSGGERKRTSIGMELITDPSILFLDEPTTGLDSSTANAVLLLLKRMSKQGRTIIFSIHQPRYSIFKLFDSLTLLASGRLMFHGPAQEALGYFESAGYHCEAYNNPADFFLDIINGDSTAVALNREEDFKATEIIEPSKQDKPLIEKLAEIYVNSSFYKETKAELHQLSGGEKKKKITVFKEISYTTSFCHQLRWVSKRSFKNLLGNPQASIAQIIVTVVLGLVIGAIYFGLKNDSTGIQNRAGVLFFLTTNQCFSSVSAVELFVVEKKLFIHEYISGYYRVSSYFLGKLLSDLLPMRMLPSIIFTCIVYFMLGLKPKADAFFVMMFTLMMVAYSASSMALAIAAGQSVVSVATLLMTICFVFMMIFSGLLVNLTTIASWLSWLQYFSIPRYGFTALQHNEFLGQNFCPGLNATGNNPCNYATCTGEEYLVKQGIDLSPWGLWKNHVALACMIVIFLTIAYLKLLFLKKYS
As to the kind of experiment: In vitro drug transporter inhibition, BCRP. Format: in vitro ADME.
Description: as §1

Series [1] in a line: Phase I pharmacokinetic study of the combination of Compound I and sofosbuvir in healthy volunteers. The class given is in vivo, human. The following applies: for Ctau, Mean / Cmax / AUC / AUC(0-inf) / AUC(0-t): n = 18; for Cmax / AUC / AUC(0-inf) / AUC(0-t): both sexes, human; for AUC: read-out: AUCtau, Mean; for AUC(0-inf): healthy volunteers, read-out: AUCinf, Mean; for AUC(0-t): read-out: AUClast, Mean. The text has this: This example studied the pharmacokinetics (PK) of the combination of Compound I and sofosbuvir (SOF), along with two metabolites of SOF, Metabolite I and II, in healthy volunteers, as part of a Phase I clinical study for Compound I.
This was a randomized, open label, single-center, multiple-dose study that enrolled Healthy males and non-pregnant, non-lactating females from 18 to 45 years old. The duration of the study was up to 38 days, and duration of the treatment was 28 days.
Additional specific exclusion criteria included, (1) use of over the counter (OTC) or prescribed medications that affect gastric pH (i.e., antacids, H2 receptor antagonists (H2RAs), and/or proton-pump inhibitors (PPIs)) 28 days prior to baseline and (2) history of severe peptic ulcer disease, GERD, or other stomach acid diseases requiring prolonged (>6 months) medication or surgical therapy to modify gastric pH. […]
Plasma concentrations and pharmacokinetic parameters for the compounds were listed and summarized using descriptive statistics by treatment. In addition, an analysis of variance (ANOVA) using a mixed-effects model with treatment, period, sequence as fixed effects and subject within sequence as a random effect were fitted to the natural logarithmic transformation of PK parameters (AUCinf, AUClast, and Cmax).
The 90% confidence intervals were constructed for the ratio of geometric least-squares means of primary PK parameters for each of the test treatments (as shown in Table 1).

For series [2], the system named is human colon carcinoma cell line (caco-2). As to the kind of experiment: Bidirectional permeability of sofosbuvir in caco-2 monolayers. Conditions: for Papp of sofosbuvir, Forward, Average / Papp of sofosbuvir, Forward, Repat 2 / Papp of sofosbuvir, Forward, Repeat 1 / Papp of sofosbuvir, Reverse, Average / Papp of sofosbuvir, Reverse, Repat 2 / Papp of sofosbuvir, Reverse, Repeat 1 / effect of coincubation on permeability/efflux of sofosbuvir, fold increase: human, Caco-2, 120 min, pH 7.4. As to the method: (§2) Caco-2 human intestinal epithelial cell monolayers cultured for twenty-one to twenty-eight days were plated on 12 well Transwell® dual chamber plates.
(§3) Assays were run in duplicate (n=2) in one to two separate experiments. Assay buffer at pH 7.4 was placed in both chambers. Hanks buffer with 1% BSA was used in receiver compartment.
(§4) Apical side was dosed for apical-to-basolateral (A to B) assessment. Basolateral side was dosed for basolateral-to-apical (B to A) assessment. Donor side was sampled at time points of 0 and 120 minutes.
(§5) Receiver side was sampled at time points: 60 and 120 minutes.
(§6) The apparent permeability, Papp, and % recovery were calculated as follows: […]
(§7) Where, dR/dt is the slope of the cumulative concentration in the receiver compartment versus time in μM/s based on receiver concentrations measured at 60 and 120 minutes. Vr and Vd are the volumes in the receiver and donor compartment in cm^3, respectively. A is the area of the cell monolayer (1.12 cm^2). D0 and D120 are the measured donor concentrations at the beginning and end of the experiment, respectively. R120 is the receiver concentration at the end of the experiment (120 minutes).

Assay in series [3]: as above
The following applies: human, Caco-2, pH 7.4. As to the method: as §2, §3, §4, §5, §6, §7

Setting [4] is: SOF + Comp I versus Comp I alone.
Setting [5] is: plasma, oral, 100 mg, Comp I alone.
[6] abbreviates: in vivo, plasma analyte after SOF + Comp I.
The mark [7] stands for this setting: in vivo, plasma analyte after SOF alone.
Setting [8] is: co-administration with Compound I versus SOF alone.

Where two headings read alike, the source gives them in different places.

Sequence of P-gp (P08183 whole entry): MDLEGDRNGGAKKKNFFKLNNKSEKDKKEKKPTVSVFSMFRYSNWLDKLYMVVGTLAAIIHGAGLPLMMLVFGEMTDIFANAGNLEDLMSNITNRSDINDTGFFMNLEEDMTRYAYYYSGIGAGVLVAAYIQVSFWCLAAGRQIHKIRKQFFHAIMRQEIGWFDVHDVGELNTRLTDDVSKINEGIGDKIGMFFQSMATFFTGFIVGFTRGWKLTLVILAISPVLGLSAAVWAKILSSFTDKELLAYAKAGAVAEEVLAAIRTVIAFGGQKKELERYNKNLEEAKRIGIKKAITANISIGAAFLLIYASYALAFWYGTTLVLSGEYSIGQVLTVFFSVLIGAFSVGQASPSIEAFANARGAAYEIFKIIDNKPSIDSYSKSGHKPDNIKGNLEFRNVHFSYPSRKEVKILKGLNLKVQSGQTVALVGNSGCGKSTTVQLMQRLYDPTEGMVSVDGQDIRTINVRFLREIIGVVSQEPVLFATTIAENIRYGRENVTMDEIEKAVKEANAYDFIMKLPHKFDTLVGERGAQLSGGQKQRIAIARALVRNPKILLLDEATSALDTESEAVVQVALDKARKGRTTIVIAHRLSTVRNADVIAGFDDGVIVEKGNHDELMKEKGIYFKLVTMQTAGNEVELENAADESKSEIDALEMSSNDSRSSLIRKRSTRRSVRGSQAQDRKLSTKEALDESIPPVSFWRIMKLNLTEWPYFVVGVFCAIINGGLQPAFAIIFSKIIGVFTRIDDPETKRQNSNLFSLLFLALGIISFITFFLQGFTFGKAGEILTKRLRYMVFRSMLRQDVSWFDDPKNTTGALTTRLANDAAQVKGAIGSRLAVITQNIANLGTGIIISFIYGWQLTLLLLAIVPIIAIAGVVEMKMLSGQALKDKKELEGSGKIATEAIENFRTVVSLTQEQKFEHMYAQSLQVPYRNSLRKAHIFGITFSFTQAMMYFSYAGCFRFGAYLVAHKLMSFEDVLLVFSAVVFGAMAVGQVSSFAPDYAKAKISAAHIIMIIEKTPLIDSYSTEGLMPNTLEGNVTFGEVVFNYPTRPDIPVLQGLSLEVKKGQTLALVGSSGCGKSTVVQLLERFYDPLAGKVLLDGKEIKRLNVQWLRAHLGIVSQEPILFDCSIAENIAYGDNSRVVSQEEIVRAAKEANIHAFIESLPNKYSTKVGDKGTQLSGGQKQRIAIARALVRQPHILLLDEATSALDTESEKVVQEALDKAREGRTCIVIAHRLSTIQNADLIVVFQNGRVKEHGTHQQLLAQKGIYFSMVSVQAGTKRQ

As usually defined, the Cmax is the maximum level reached in the sampled fluid or tissue. Take `COC[C@H]1C[C@@H](c2ncc(-c3ccc4c(c3)COc3cc5c(ccc6nc([C@@H]7CC[C@H](C)N7C(=O)[C@@H](NC(=O)OC)C(C)C)[nH]c65)cc3-4)[nH]2)N(C(=O)[C@H](NC(=O)OC)c2ccccc2)C1` [Compound I, methyl {(2S)-1-[(2S,5S)-2-(9-{2-[(2S,4S)-1-{(2R)-2-[(methoxycarbonyl)amino]-2-phenylacetyl}-4-(methoxymethyl)pyrrolidin-2-yl]-1H-imidazol-5-yl}-1,11-dihydroisochromeno[4′,3′:6,7]naphtho[1,2-d]imidazol-2-yl)-5-methylpyrrolidin-1-yl]-3-methyl-1-oxobutan-2-yl}carbamate]: the “inhibition of P-gp” value against P-gp is “marked inhibition”. At BCRP, the “inhibition of BCRP” value was “not on other tested transporters”. For the same compound, the “Ctau, Mean” value in series [1] (Comp I alone) is listed as 113 ng/mL. In series [1] (setting [4]), the “AUCtau, % GMR” value turned out to be 112%; the “Cmax, % GMR” value was 106%; the “Ctau, % GMR” value is 118%. Also, the “Ctau, Mean” value in series [1] (SOF + Comp I) is on record as 135 ng/mL. Besides, in series [1] (setting [5]), the Cmax turned out to be 963 ng/mL and the AUC came to 7690 ng·h/mL. The Cmax in series [1] (plasma, oral, Compound I analyte, SOF + Comp I) worked out at 1020 ng/mL. The AUC in series [1] (plasma, oral, SOF + Comp I) was 8600 ng·h/mL. In addition, in series [2], the “Papp of sofosbuvir, Forward, Average” value is on record as 0.66 10^−6 cm/s; the “Papp of sofosbuvir, Forward, Repat 2” value was 0.6 10^−6 cm/s; the “Papp of sofosbuvir, Forward, Repeat 1” value was 0.73 10^−6 cm/s; the “Papp of sofosbuvir, Reverse, Average” value is on record as 7.39 10^−6 cm/s. In series [2], the “Papp of sofosbuvir, Reverse, Repat 2” value was 7.56 10^−6 cm/s; the “Papp of sofosbuvir, Reverse, Repeat 1” value is 7.22 10^−6 cm/s; the “effect of coincubation on permeability/efflux of sofosbuvir, fold increase” value was approximately 4 fold.
Broadly, the Papp A→B is the apparent permeability from the apical to the basolateral side of a cell layer. In general, efflux ratio refers to a quotient of directional permeabilities that is used to spot active efflux. In the case of `CC(C)OC(=O)[C@H](C)N[P@](=O)(OC[C@H]1O[C@@H](n2ccc(=O)[nH]c2=O)[C@](C)(F)[C@@H]1O)Oc1ccccc1` [Sofosbuvir, (S)-isopropyl 2-(((S)-(((2R,3R,4R,5R)-5-(2,4-dioxo-3,4-dihydropyrimidin-1(2H)-yl)-4-fluoro-3-hydroxy-4-methyltetrahydrofuran-2-yl)methoxy)(phenoxy)phosphoryl)amino)propanoate], in series [1] (SOF + Comp I versus SOF alone), the “AUCinf, % GMR” value is listed as 238%; the “AUClast, % GMR” value is reported as 238%; the “Cmax, % GMR” value is reported as 181%. In addition, in series [1] (in vivo, plasma analyte after SOF + Comp I (100 mg)), the AUC(0-inf) came out at 2860 ng·h/mL. In series [1] (setting [6]), the maximum concentration (Cmax) is 1670 ng/mL and the AUC(0-t) stood at 2850 ng·h/mL. For the same compound, in series [1] (setting [7]), the AUC(0-inf) was determined as 1200 ng·h/mL, the Cmax worked out at 964 ng/mL and the AUC(0-t) came to 1200 ng·h/mL. For the same compound, in series [1] (setting [8]), the “AUC increase by Compound I” value is approximately 2.4 fold and the “Cmax increase by Compound I” value was approximately 1.8 fold. For the same compound, the “permeability through caco-2 cells (in words)” value in series [2] (sofosbuvir alone at 10 μM, control compounds for acceptance criteria) is given as “low permeability”. Moreover, in series [3], the apparent permeability from apical to basolateral (Papp A→B) at 120 min, 10 μM worked out at 0.25 ×10⁻⁶ cm/s and the efflux ratio at 120 min, 10 μM is 43.6.
Turning to lucifer yellow [reference compound], the “permeability through caco-2 cells (in words)” value in series [2] (Caco-2) is recorded as “indicated appropriate membrane integrity”.
As to `C[C@H]1O[C@@H](O[C@H]2[C@@H](O)C[C@H](O[C@H]3[C@@H](O)C[C@H](O[C@H]4CC[C@@]5(C)[C@H](CC[C@@H]6[C@@H]5C[C@@H](O)[C@]5(C)[C@@H](C7=CC(=O)OC7)CC[C@]65O)C4)O[C@@H]3C)O[C@@H]2C)C[C@H](O)[C@@H]1O` [digoxin, reference compound], in series [2] (control), the “transport of control transport substrate” value is on record as “Transport was observed”.
For `CC1=CC[C@H](C(=O)N(c2cc(C#CC(C)(C)C)sc2C(=O)O)[C@H]2CC[C@](O)(CO[C@H]3CCOC3)CC2)CC1` [Compound III, 5-(3,3-dimethylbutyn-1-yl)-3-[(cis-4-hydroxy-4-{[(3S)-tetrahydrofuran-3-yloxy]methyl}cyclohexyl) {[(1R)-4-methylcyclohex-3-en-1-yl]carbonyl}amino]thiophene-2-carboxylic acid], in series [2], the “Papp of sofosbuvir, Forward, Average” value is given as 0.3 10^−6 cm/s; the “Papp of sofosbuvir, Forward, Repat 2” value was 0.28 10^−6 cm/s; the “Papp of sofosbuvir, Forward, Repeat 1” value was 0.31 10^−6 cm/s; the “Papp of sofosbuvir, Reverse, Average” value is on record as 6.93 10^−6 cm/s. For the same compound, in series [2], the “Papp of sofosbuvir, Reverse, Repat 2” value is listed as 6.82 10^−6 cm/s; the “Papp of sofosbuvir, Reverse, Repeat 1” value was 7.05 10^−6 cm/s; the “effect of coincubation on permeability/efflux of sofosbuvir, fold increase” value is approximately 2 fold.
For `CC(C)NCC(O)COc1cccc2ccccc12` (stereo not shown) [Propranolol, reference compound], in series [2] (Caco-2), the “permeability through caco-2 cells (in words)” value is listed as “high permeability”.
For `Fc1ccccc1-c1nc2ccn(Cc3ccc(-c4ccc(C(F)(F)F)cc4C(F)(F)F)nn3)cc-2n1` [Compound V, 5-((6-(2,4-bis(trifluoromethyl)phenyl)pyridazin-3-yl)methyl)-2-(2-fluorophenyl)-5H-imidazo[4,5-c]pyridine], in series [2], the “Papp of sofosbuvir, Forward, Average” value is 11.1 10^−6 cm/s; the “Papp of sofosbuvir, Forward, Repat 2” value is 0.92 10^−6 cm/s; the “Papp of sofosbuvir, Forward, Repeat 1” value is 0.46 10^−6 cm/s; the “Papp of sofosbuvir, Reverse, Average” value is listed as 1.09 10^−6 cm/s. For the same compound, in series [2], the “Papp of sofosbuvir, Reverse, Repat 2” value is recorded as 11.7 10^−6 cm/s; the “Papp of sofosbuvir, Reverse, Repeat 1” value is 10.5 10^−6 cm/s; the “effect of coincubation on permeability/efflux of sofosbuvir, fold increase” value is reported as approximately 2 fold.

Source of the values: US20140343008A1, “HEPATITIS C TREATMENT” (Gilead Pharmasset LLC, priority 2013, published 2014).
